Legend:
HT-1080 cells = assay: Cell Titer Glo cell viability assay with radiation; format: cell-based; settings: HT-1080, 4 Gy radiation for 24 h
Procedure: HT-1080 cells were plated at 1,000 cells per well in white 96-well plates (100 uL per well) in technical duplicates. The cells were then treated with vehicle (DMSO), Ferrostatin-1, DFO, Z-VAD-FMK or Necrostatin-1S and incubated overnight. […] After another 24 h, 100 uL of 50% Cell Titer Glo (Promega) 50% cell culture medium was added to each well and incubated at room temperature with shaking for 15 min. Luminescence was measured using a Victor X5 plate reader (PerkinElmer). Experiments were performed three independent times with different passages for each cell line.

[1] = test system: lipid species in HT-1080 cells; assay: Mass spectrometry-based untargeted lipidomics; format: cell-based
Procedure: Homogenized samples were transferred to fresh glass tubes containing 850 mL of cold methyl-tertbutyl ether (MTBE) and vortex-mixed for 30 sec. To enhance extraction efficiency of lipids, the samples were incubated for one hour at 4° C. on an orbital shaker. Afterwards, 200 mL of cold water was added to each sample, and incubated for 20 min on ice before centrifugation at 3,000 rpm for 20 min at 4° C. The organic layer was collected followed by drying under a gentle stream of nitrogen gas on ice and stored at −80° C. until UPLC-MS analysis. The protein pellet was used to measure protein concentration for normalization using Bio-Rad protein assay. The samples were re-constituted in a solution containing 2-propanol/acetonitrile/water (4:3:1, v/v/v) containing mixture of internal standard (PLASH® LIPIDOMIX® Mass Spec Standard, Avanti Polar Lipids, INC.) for further UPLC-MS analysis. A quality control (QC) sample was prepared by combining 40 mL of each sample to assess the reproducibility of the features through the runs.
Chromatographic separation of extracted lipids was carried out at 55° C. on ACQUITY UPLC CSH C18 Column, (130 Å, 1.7 μm, 2.1 mm×100 mm) over a 20-min gradient elution. Mobile phase A consisted of ACN/water (60:40, v/v) and mobile phase B was 2-propanol/ACN/water (85:10:5, v/v/v) both containing 10 mM ammonium acetate and 0.1% acetic acid. […]

[2] = test system: MDA in HT-1080 xenograft tumor tissue; assay: MDA immunohistochemistry on paraffin-embedded tumor sections; format: in vivo, mice; settings: tumors resected at day 14
Procedure: Tumor tissue was fixed in 4% paraformaldehyde (PFA) for 24 h at 4° C. followed by washing three times with PBS. The samples were fixed in paraffin. Six series of […] sections were obtained with a sliding microtome. The serial sections were then mounted on gelatin-coated slide. The paraffin-embedded tissue sections were deparaffinized with xylene three times, 5 min each, followed by rehydrating in 100%, 90%, 70%, and 50% ethanol, two washes 5 min each, then rinsed with distilled water. Antigen retrieval was performed in sodium citrate buffer, pH 6.0, 95-100° C. for 10 min. Sections were then rinsed in PBST, 2 min each. A hydrophobic barrier pen was used to draw a circle on each slide. The slides were permeabilized with PBS/0.4% Triton X-100 twice before non-specific-binding blocking by incubating the sections with 10% goat serum (ThermoFisher 50197Z) for 30 minutes at room temperature. […] All images were captured on a Zeiss LSM 700 confocal microscope with constant laser intensity for all analyzed samples. The intensity above threshold of the fluorescent signal of the bound antibodies was analyzed using NIH ImageJ software.
Next, malondialdehyde (MDA) levels, as a biomarker for ferroptosis, were measured in tumor tissue using immunohistochemistry on fixed and paraffin-embedded tumor samples resected at day 14 post-treatment (FIG. 6B).

[3] = test system: TM00219 patient-derived xenograft tumors; assay: Patient-derived xenograft study in mice (TM00219 lung adenocarcinoma); format: in vivo; settings: 40 mg/kg i.p. daily for 14 days, NSG mice
Procedure: The experiment was conducted according to the same protocol as the HT-1080 tumor xenograft study, with the exception that a single dose of radiation (sham or 6 Gy) was delivered to the tumor on day 1 of the experiment.
Finally, the effect of ferroptosis-inducing system xc^− inhibitors, in combination with radiation, was tested on a patient-derived xenograft (PDX) model of lung adenocarcinoma, which is another type of cancer commonly treated with radiation therapy. NSG mice engrafted with a human lung adenocarcinoma tumor (TM00219) were evaluated.

[4] = format: in vivo; settings: 40 mg/kg IKE i.p. 14 days, with or without 6 Gy radiation
HT-1080 xenograft tumors = assay: HT-1080 tumor xenograft study in mice; settings: 40 mg/kg IKE i.p. daily for 14 days
Procedure: The injections were repeated daily for 14 days. […] For the sorafenib experiment, the formulation used was 40 mg/kg sorafenib in 5% DMSO, 20% ethanol in water containing 30% w/v cyclodextrin. […] Tumor size was measured daily using calipers and mouse weight was measured daily.
The efficacy of the combined treatment regimen of radiation and ferroptosis inducer was evaluated in an in vivo tumor model. […] Athymic nude mice were implanted with subcutaneous HT-1080 fibrosarcoma cells to form xenograft tumors.

SMILES | Cell viability after radiation (ATP-based luciferase assay) (HT-1080 cells) | Abundance of 17 lipid species (FA 16:1, lysophospholipids, diacylglycerols) ([1]; HT-1080, 5 μM IKE for 12 h) | Abundance of 17 lipid species (FA 16:1, lysophospholipids, diacylglycerols) ([1]; HT-1080, 5 μM IKE for 12 h plus 6 Gy radiation for 24 h) | MDA signal in tumors, IKE and radiation vs vehicle [2] | MDA signal in tumors, IKE only vs vehicle [2] | Tumor growth, combination with radiation vs all other groups ([3]; 6 Gy on day one) | Tumor growth, drug alone vs vehicle only [3] | Tolerability (weight loss) [4] | Tumor volume, IKE plus radiation (HT-1080 xenograft tumors; 6 Gy on days 2 and 4) | Tumor volume, IKE alone (HT-1080 xenograft tumors; athymic nude mice)
CCOC(=O)c1ccc(NC2CCCCC2)c(N)c1 [ferrostatin-1] | rescued from death |  |  |  |  |  |  |  |  | 
CC(C)Oc1ccc(C(=O)Cn2ccnc2)cc1-n1c(CN2CCN(C(=O)COc3ccc(Cl)cc3)CC2)nc2ccccc2c1=O [IKE, imidazole ketone erastin] |  | increased significantly | even larger increases | Significantly elevated MDA signal | No significant differences | significant tumor growth inhibition | significant tumor control | well tolerated | enhanced the effects of radiation in reducing tumor growth | not strongly effective

Source: patent US20220193047A1, “METHODS OF ENHANCING RADIOTHERAPY USING FERROPTOSIS INDUCERS AS RADIOSENSITIZERS” (THE TRUSTEES OF COLUMBIA UNIVERSITY IN THE CITY OF NEW YORK, priority 2019, published 2022)
